Test results taken from patent publication US7718651B2, “Inhibitors of FtsZ and uses thereof” (priority 2002, dated 2010).
≈ marks a conversion by molar mass, not a printed value. Where “and” joins values, the source holds several entries; their conditions need not be identical. Equal entries are not always repeated. Entries after “also recorded” stand apart in the source; their conditions may differ. Where two headings read alike, the source gives them in different places.

Experiments:
M. tuberculosis H37Rv [1] = assay: microbe, parasite or virus in culture; assay type: cell-based
M. tuberculosis H37Rv [2] = assay: MIC99 determination, BACTEC 460 radiometric system; assay type: cell-based; conditions: Mycobacterium tuberculosis; for MIC99: M. tuberculosis H37Rv
Vero cells = assay: Cytotoxicity in Vero cells (MTS assay); assay type: cell-based; conditions: Chlorocebus sabaeus, Vero cells
M. tuberculosis H37Ra = assay: MIC/MBC, colorimetric (alamar blue) microdilution broth assay; assay type: cell-based; conditions: for log reduction in cfu/mL: H37Ra
M. tuberculosis Erdman = assay: Activity in M. tuberculosis-infected mouse bone marrow macrophages; assay type: cell-based; conditions: for EC90: Mycobacterium tuberculosis, ERDMAN, Bone marrow macrophage, 168 h
Procedure: Toxicity was determined by visual inspection.

M. tuberculosis FtsZ [3] = molecular target: T1, M. tuberculosis FtsZ (Mycobacterium tuberculosis, UniProt P9WN95); assay: biochemical; conditions: read-out: FtsZ polymerization ID50
M. tuberculosis FtsZ [4] = molecular target: T1, M. tuberculosis FtsZ; assay: biochemical; conditions: 100 μM compound, Table 6; read-out: M. tuberculosis FtsZ GTP Hydrolysis % Inhibition (100 μM)
bovine tubulin = assay: Light scattering assay for tubulin polymerization; assay type: biochemical
[5] = test system: panel of Gram positive rods and cocci; assay: Microdilution broth MIC against a panel of bacteria; assay type: cell-based
Escherichia coli = assay: Microdilution broth MIC, Escherichia coli; assay type: cell-based
Salmonella typhimurium = assay: Microdilution broth MIC, Salmonella typhimurium; assay type: cell-based
Staphylococcus aureus = assay: Microdilution broth MIC, Staphylococcus aureus; assay type: cell-based
S. epidermidis = assay: Microdilution broth MIC, S. epidermidis; assay type: cell-based; conditions: Staphylococcus epidermidis; S. epidermidis SRI 1296, Trimethoprim resistant
Enterococcus hirae = assay: Microdilution broth MIC, Enterococcus hirae; assay type: cell-based; conditions: Enterococcus hirae SRI 76, Wild type
E. faecalis = assay: Microdilution broth MIC, E. faecalis; assay type: cell-based
E. faecium = assay: Microdilution broth MIC, E. faecium; assay type: cell-based; conditions: Enterococcus faecium; E. faecium SRI 1421, Vancomycin resistant
Bacillus subtilis = assay: Microdilution broth MIC, Bacillus subtilis; assay type: cell-based; conditions: Bacillus subtilis SRI 1032, Wild type
[6] = test system: Mycobacterium bovis (BCG); assay type: cell-based

T1 sequence (P9WN95 whole entry, looked up): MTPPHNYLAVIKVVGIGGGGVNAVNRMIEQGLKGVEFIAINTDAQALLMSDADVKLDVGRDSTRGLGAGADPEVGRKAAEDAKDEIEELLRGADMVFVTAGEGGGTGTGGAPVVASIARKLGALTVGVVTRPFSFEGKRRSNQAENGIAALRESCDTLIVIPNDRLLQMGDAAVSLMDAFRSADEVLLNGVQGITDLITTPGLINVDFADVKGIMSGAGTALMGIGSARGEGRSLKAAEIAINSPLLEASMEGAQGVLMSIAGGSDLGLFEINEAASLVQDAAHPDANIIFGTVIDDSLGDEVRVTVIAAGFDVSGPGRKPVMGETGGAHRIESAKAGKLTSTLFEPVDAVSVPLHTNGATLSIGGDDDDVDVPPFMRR

CCOC(=O)Nc1cc(NC(C)CCCN(CC)CC)c2nc(-c3ccccc3)c(-c3ccccc3)nc2n1 (stereo not drawn) [SRI-3072, [8-(4-Diethylamino-1-methyl-butylamino)-2,3-diphenyl-pyrido[2,3-b]pyrazin-6-yl]-carbamic acid ethyl ester]
inhibition of growth at 12.5 µg/mL (M. tuberculosis H37Rv [1]; Mycobacterium tuberculosis, M. tuberculosis H37Rv, at 12.5% μg/ml (so in the source), read-out: Primary Screen PI (% inhibition of growth)): 100%
activity against M. tuberculosis H37Rv in the primary screen (M. tuberculosis H37Rv [1]; in words): demonstrated activity
MIC (M. tuberculosis H37Rv [2]; H37RV, MIC referred to for dosing of the macrophage assay, strain not stated, read-out: MIC): 0.2 µg/mL (≈ 0.38 µM)
MIC99 (M. tuberculosis H37Rv [2]; Table 3, read-out: Screen 2 MIC99): 0.15 µg/mL (≈ 0.285 µM)
MIC99 (M. tuberculosis H37Rv [2]; read-out: MIC99): 0.15 µg/mL and 0.28 µM
MIC (M. tuberculosis H37Rv [2]; wildtype (H37Rv), Table 5, read-out: MIC, WT): 0.2 µg/mL (≈ 0.38 µM)
IC50 (Vero cells; 72 h, 72 h exposure, Table 3, read-out: IC50): 6.3 µg/mL (≈ 12 µM)
IC50 (Vero cells; read-out: IC50): 6.3 µg/mL (≈ 12 µM)
log reduction in cfu/mL (M. tuberculosis H37Ra; 0.95 μM drug, six days): 0.98±0.11
log reduction in cfu/mL (M. tuberculosis H37Ra; 1.9 μM drug, six days): 1.7±0.06
log reduction in cfu/mL (M. tuberculosis H37Ra; 3.8 μM drug, six days): 2.0±0.12
MBC (M. tuberculosis H37Ra; Mycobacterium tuberculosis, H37RA, 144 h, M. tuberculosis H37Ra, six days): 1 µg/mL to 2 µg/mL and 1.9 µM to 3.8 µM
MIC (M. tuberculosis H37Ra; Mycobacterium tuberculosis, H37RA, M. tuberculosis H37Ra, FIG. 2 legend): 250 µg/mL (≈ 475 µM)
MIC (M. tuberculosis H37Ra; Mycobacterium tuberculosis, H37RA, M. tuberculosis H37Ra, read-out: MIC): 0.25 µg/mL and 0.47 µM
EC90 (M. tuberculosis Erdman; after seven days, read-out: EC90): 0.12 µg/mL
EC90 (M. tuberculosis Erdman; after seven days, read-out: EC90 (90% reduction in mycobacterial growth)): 0.23 µM
EC99 (M. tuberculosis Erdman; after seven days): 1.42 µg/mL
EC99 (99% reduction in mycobacterial growth) (M. tuberculosis Erdman; after seven days): 2.7 µM
growth of M. tuberculosis in infected mouse bone marrow macrophages (M. tuberculosis Erdman; in words): inhibit the growth
IC50 (M. tuberculosis FtsZ [3]): 52 ± 12 µM
inhibition at 100 µM (M. tuberculosis FtsZ [4]): 20%
inhibition of tubulin polymerization (bovine tubulin; in words, 100 μM): no inhibition of tubulin was seen; also recorded: no effect
Bovine Brain Tubulin Polymerization ID50 (bovine tubulin; tubulin 20 μM, 1 mM GTP, Table 6): no inhibition (100 μM)
MIC ([5]; Bacillus subtilis, read-out: MICs against expanded panel of Gram positive rods and cocci): 32 to 64 µg/mL (≈ 60.8 to 122 µM)
activity against several Gram-positive bacteria, including drug resistant strains ([5]; in words): moderate activity
MIC (Escherichia coli; Escherichia coli SRI 1218, Wild type): > 64 µg/mL
activity against E. coli (Escherichia coli; in words): not active
MIC (Salmonella typhimurium; Salmonella enterica, TYPHIMURIUM): 64 µg/mL (≈ 122 µM)
activity against S. typhimurium deep rough (rfa) mutant (Salmonella typhimurium; in words): active
MIC (Staphylococcus aureus; S. aureus SRI 1186, Wild type): 32 µg/mL (≈ 60.8 µM)
MIC (Staphylococcus aureus; S. aureus SRI 1279, Methicillin resistant): 64 µg/mL (≈ 122 µM)
MIC (Staphylococcus aureus; S. aureus SRI 1343, Multi-drug resistant): 64 µg/mL (≈ 122 µM)
MIC (Staphylococcus aureus; Staphylocococcus aureus SRI 1323, Wild type): 32 µg/mL (≈ 60.8 µM)
MIC (Staphylococcus aureus; strain not named): 32 µg/mL (≈ 60.8 µM)
MIC (S. epidermidis): 32 µg/mL (≈ 60.8 µM)
MIC (Enterococcus hirae): 32 µg/mL (≈ 60.8 µM)
MIC (E. faecalis; E. faecalis SRl 1295, Wild type): 64 µg/mL (≈ 122 µM)
MIC (E. faecalis; Enterococcus faecalis, E. faecalis SM 1414, Vancomycin resistant, read-out: MIC): 64 µg/mL (≈ 122 µM)
MIC (E. faecium): 32 µg/mL (≈ 60.8 µM)
MIC (Bacillus subtilis): 16 µg/mL (≈ 30.4 µM)
cell length / morphology [6]: much longer and branched
recovery after washing to remove drug ([6]; BCG cultured cells): do not recover
